Results published in publication PMC11190158, “Study on the design, synthesis, and activity of anti-tumor staple peptides targeting MDM2/MDMX” (Frontiers in Chemistry, 2024).
≈ marks a conversion by molar mass, not a printed value. Entries after “also recorded” stand apart in the source; their conditions may differ. Blank lines part the entries; values can stand above or below the molecule they belong to. Positions of bridges follow the written chain, without caps; N, C: chain ends. Non-standard residues stand in square brackets, D forms with d. Residues, ends and D or L forms follow the SMILES beside them. R8 = C=CCCCCCC[C@@](C)(N)C(=O)O; S5 = C=CCCC[C@](C)(N)C(=O)O

Key:
[1] = circular dichroism; settings: phosphate buffer (PB); pH 7.2; ns °C; 10-50 (printed mmol/L, probably uM)
[2] = Circular dichroism, degree of helicity; type: physicochemical; settings: CD, PB pH 7.2, 10–50 mmol/L peptide, ambient temperature, 1-mm path length, 185–255 nm
Protocol: The staple peptides were soluble in PB with a pH of 7.2 at a concentration of 10–50 mmol/L. CD experiments were performed using a Jasco J-715 Spectropolarimeter at ambient temperature. A quartz cuvette with a 1-mm path length was used for the spectrum collection (wavelength, 185–255 nm; step resolution, 0.0001 mm; speed, 1.2 μm/h; accumulations, 6; and bandwidth, 0.0001 mm). We calculated the helicity of each peptide using Eq.

[3] = test system: tumor cells; assay: Cytotoxicity / cell viability assay (CCK-8), cell line not given; type: cell-based, human; settings: for anti-proliferative / tumor suppressive activity (in words): HCT116 p53^+/+, HCT116 p53−/−, U87 and U251 cell viability experiments, versus template straight-chain peptide; for concentration at which in vitro anti-tumor activity was exhibited: compared to linear peptide M3-1, cell line not named
Protocol: Human colon cancer cell lines HCT116 p53^+/+, HCT116 p53^−/−, U87 MG, and U251 were maintained in McCoy’s 5A Medium supplemented with 10% heat-inactivated FCS and 1% penicillin–streptomycin at 37°C, 5% CO2, and under complete humidification conditions. The cells (3×10^3 cells/well) were inoculated in 96-well plates and treated with different concentrations of polypeptides for 72 h. The absorbance at 450 nm was then measured using the CCK-8 Kit, and the percentage of cell survival was calculated based on the ratio of the sample well to the reference well A450.

[4] = test system: U87 MG; assay: Apoptosis assay (Annexin V/PI, flow cytometry); type: cell-based, human; set-up: LR / UR / LR+UR: unit not given here; settings: for LR+UR: total apoptosis
Protocol: Fluorescent probes were used to detect normal viable cells, apoptotic cells, and necrotic cells by double labeling of cells, and the morphological characteristics of the apoptotic cells were explored. A Petri dish with 8–90% confluence was taken from the incubator. Tumor cells were collected, and the cells were counted under the microscope through the cell slide. A cell suspension of the appropriate concentration was prepared. Different concentrations of peptide samples were added according to the experimental group. Three compound wells were set up in each group; the control group was set up without peptides, and the blank group was set up without cells. […] Then, 2 μL of PI solution was added before placing it on the machine, and one tube without dye was used as a negative control. On-machine assays were performed with flow cytometry. […] Total apoptosis = LR region + UR region.

[5] = test system: U251; assay: Apoptosis assay (Annexin V/PI, flow cytometry); type: cell-based, human; set-up: LR / UR / LR+UR: unit not given here; settings: for LR+UR: total apoptosis
Protocol: Fluorescent probes were used to detect normal viable cells, apoptotic cells, and necrotic cells by double labeling of cells, and the morphological characteristics of the apoptotic cells were explored. A Petri dish with 8–90% confluence was taken from the incubator. Tumor cells were collected, and the cells were counted under the microscope through the cell slide. A cell suspension of the appropriate concentration was prepared. Different concentrations of peptide samples were added according to the experimental group. Three compound wells were set up in each group; the control group was set up without peptides, and the blank group was set up without cells. Then, 300 μL of Binding Buffer was added after 24 h of dosing, and 2 μL of Annexin V was added to each tube, pipetted to mix it well, and then incubated at room temperature in the dark for 15 min. Then, 2 μL of PI solution was added before placing it on the machine, and one tube without dye was used as a negative control. On-machine assays were performed with flow cytometry. […] Total apoptosis = LR region + UR region.

[6] = test system: HCT116 p53^+/+; settings: 72 h
[7] = test system: HCT116 p53^−/−; settings: 72 h
[8] = test system: U87 MG; settings: for concentration at which in vitro anti-tumor activity was exhibited: U87 MG tumor cells, CCK-8
[9] = test system: U251; settings: for concentration at which in vitro anti-tumor activity was exhibited: U251 tumor cells, CCK-8
[10] = test system: U251; assay: Apoptosis assay (Annexin V/PI, flow cytometry); type: cell-based, human; settings: U251, 20 μM, 36 h (legend; method 24 h), mean
[11] = 20 μM, 36 h (legend; method 24 h), Annexin V/PI, mean
[12] = U251, 5 μM, sample 9 (replicate 1)
[13] = U251, 5 μM, sample 10 (replicate 2)
[14] = U251, 10 μM, sample 11 (replicate 1)
[15] = U251, 10 μM, sample 12 (replicate 2)
[16] = U251, 20 μM, sample 13 (replicate 1)
[17] = U251, 20 μM, sample 14 (replicate 2)

helicity [2]: 28.96% | IC50 [6]: 77.5 µM | IC50 [7]: 33.2 µM | IC50 ([8]; 72 h): 7.84 µM | IC50 ([9]; 72 h): 14.7 µM
Molecule: CSCC[C@H](NC(=O)[C@H](CC(C)C)NC(=O)[C@]1(C)CCCC=CCCC[C@](C)(NC(=O)[C@H](CC(C)C)NC(=O)[C@H](Cc2ccccc2)NC(=O)[C@@H](NC(=O)[C@H](CC(C)C)NC(=O)[C@H](CCCCN)NC(C)=O)[C@@H](C)O)C(=O)N[C@@H](Cc2ccc(O)cc2)C(=O)N[C@@H](Cc2c[nH]c3ccccc23)C(=O)N[C@@H](C)C(=O)N1)C(=O)N[C@@H](CCC(N)=O)C(=O)N[C@@H](CCCCN)C(N)=O [SM3-4] (Ac-KLTFL[S5]YWA[S5]LMQK-NH2; staple 6-10)
helicity [1]: 29% | anti-proliferative / tumor suppressive activity (in words) [3]: significantly improved; also recorded: strongest anti-proliferative activity | concentration at which in vitro anti-tumor activity was exhibited [3]: 25 µM | LR ([4]; 5 μM, sample 1 (replicate 1)): 1.25 | UR ([4]; 5 μM, sample 1 (replicate 1)): 3.07 | LR+UR ([4]; 5 μM, sample 1 (replicate 1)): 4.32 | LR ([4]; 5 μM, sample 2 (replicate 2)): 1.04 | UR ([4]; 5 μM, sample 2 (replicate 2)): 3.27 | LR+UR ([4]; 5 μM, sample 2 (replicate 2)): 4.31 | LR ([4]; 10 μM, sample 3 (replicate 1)): 1.11 | UR ([4]; 10 μM, sample 3 (replicate 1)): 6.12 | LR+UR ([4]; 10 μM, sample 3 (replicate 1)): 7.23 | LR ([4]; 10 μM, sample 4 (replicate 2)): 2.02 | UR ([4]; 10 μM, sample 4 (replicate 2)): 3.16 | LR+UR ([4]; 10 μM, sample 4 (replicate 2)): 5.18 | LR: apoptotic cells [4, 11]: 29.91% | UR: dead cells [4, 11]: 42.285% | LR ([4]; 20 μM, sample 5 (replicate 1)): 26.96 | UR ([4]; 20 μM, sample 5 (replicate 1)): 37.58 | LR+UR ([4]; 20 μM, sample 5 (replicate 1)): 64.54 | LR ([4]; 20 μM, sample 6 (replicate 2)): 32.86 | UR ([4]; 20 μM, sample 6 (replicate 2)): 46.99 | LR+UR ([4]; 20 μM, sample 6 (replicate 2)): 79.85 | apoptotic effect (in words) ([4]; 5, 10 and 20 μM): significant apoptotic effect | LR [5, 12]: 0.89 | UR [5, 12]: 2.73 | LR+UR [5, 12]: 3.62 | LR [5, 13]: 0.47 | UR [5, 13]: 1.92 | LR+UR [5, 13]: 2.39 | LR [5, 14]: 1.47 | UR [5, 14]: 1.92 | LR+UR [5, 14]: 3.39 | LR [5, 15]: 1.12 | UR [5, 15]: 1.94 | LR+UR [5, 15]: 3.06 | LR [5, 16]: 6.85 | UR [5, 16]: 8.8 | LR+UR [5, 16]: 15.65 | LR [5, 17]: 4.92 | UR [5, 17]: 13.66 | LR+UR [5, 17]: 18.58 | apoptotic effect (in words) ([5]; U251, 5, 10 and 20 μM): significant apoptotic effect | minimum inhibitory concentration ([8]; 72 h): 8 µM (≈ 14.7 µg/mL) | minimum inhibitory concentration ([9]; 72 h): 16 µM (≈ 29.3 µg/mL) | LR: apoptotic cells [10]: 5.885% | UR: dead cells [10]: 11.23%

helicity [2]: 42.85% | IC50 [6]: 27.3 µM | IC50 [7]: 27.4 µM | IC50 ([8]; 72 h): 31.2 µM | IC50 ([9]; 72 h): 35.9 µM
Molecule: CSCC[C@@H]1NC(=O)[C@H](CC(C)C)NC(=O)[C@H](CCC(N)=O)NC(=O)[C@@](C)(NC(=O)[C@H](Cc2c[nH]c3ccccc23)NC(=O)[C@H](Cc2ccc(O)cc2)NC(=O)[C@H](CCC(=O)O)NC(=O)[C@H](CC(C)C)NC(=O)[C@H](Cc2ccccc2)NC(=O)[C@@H](NC(=O)[C@H](CC(C)C)NC(=O)[C@H](CCCCN)NC(C)=O)[C@@H](C)O)CCCC=CCCC[C@@](C)(C(=O)N[C@@H](CCCCN)C(N)=O)NC1=O [SM3-5] (Ac-KLTFLEYW[S5]QLM[S5]K-NH2; staple 9-13)
helicity [1]: 42.9% | anti-proliferative / tumor suppressive activity (in words) [3]: significantly improved | concentration at which in vitro anti-tumor activity was exhibited [3]: 25 µM | concentration at which in vitro anti-tumor activity was exhibited [8]: 25 µM | concentration at which in vitro anti-tumor activity was exhibited [9]: 50 µM

helicity [2]: 52.02% | IC50 [6]: 17.6 µM | IC50 [7]: 17.9 µM | IC50 ([8]; 72 h): 45 µM | IC50 ([9]; 72 h): 94.2 µM
Molecule: CC(=O)N[C@@H](CCCCN)C(=O)N[C@@H](CC(C)C)C(=O)N[C@H](C(=O)N[C@@H](Cc1ccccc1)C(=O)N[C@]1(C)CCCCCCC=CCCC[C@@](C)(C(=O)N[C@@H](CCC(N)=O)C(=O)N[C@@H](CCCCN)C(N)=O)NC(=O)[C@H](CC(C)C)NC(=O)[C@H](CCC(N)=O)NC(=O)[C@H](C)NC(=O)[C@H](Cc2c[nH]c3ccccc23)NC(=O)[C@H](Cc2ccc(O)cc2)NC(=O)[C@H](CCC(=O)O)NC1=O)[C@@H](C)O [SM3-8] (Ac-KLTF[R8]EYWAQL[S5]QK-NH2; staple 5-12)
concentration at which in vitro anti-tumor activity was exhibited [3]: 25 µM | concentration at which in vitro anti-tumor activity was exhibited [8]: 50 µM | concentration at which in vitro anti-tumor activity was exhibited [9]: 100 µM

Molecule: Ac-KLTFLEYWAQLMQK-NH2
helicity [1]: 0.54%
